Assay results from US20150139949A1, “ANTI-VIRAL COMBINATION THERAPY” (priority 2011, published 2015).
Read-outs that look alike come from different tables or passages of the source.

Key:
HCMV = HCMV replication / titer in infected fibroblasts; type: cell-based
influenza A = influenza A replication; type: cell-based
MDCK cells = assay: host cell toxicity in influenza A experiment; type: cell-based; details: 0.5 mM and 1 mM, 24 hours
adenovirus = adenovirus replication / titer; type: cell-based; details: for decrease of adenovirus titer: MRC2 cells
[1] = tested on: triacylglycerol (TG) synthesis; details: cited from earlier work
[2] = tested on: cholesterol ester (CE) synthesis; details: cited from earlier work
hELOVL6 = biological target: T1, hELOVL6 (Homo sapiens, UniProt Q9H5J4); details: read-out: hELOVL6 IC50; cited from earlier work
T1 sequence (Q9H5J4 1-265): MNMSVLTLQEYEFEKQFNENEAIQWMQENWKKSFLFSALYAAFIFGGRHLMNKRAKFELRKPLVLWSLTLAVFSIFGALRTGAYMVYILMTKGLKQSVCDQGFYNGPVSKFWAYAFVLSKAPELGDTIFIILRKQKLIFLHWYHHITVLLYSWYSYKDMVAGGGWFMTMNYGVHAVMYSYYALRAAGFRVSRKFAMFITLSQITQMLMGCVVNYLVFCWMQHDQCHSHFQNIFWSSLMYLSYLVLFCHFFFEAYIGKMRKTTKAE

hELOVL3 = biological target: T2, hELOVL3 (Homo sapiens, UniProt Q9HB03); details: cited from earlier work
T2 sequence (Q9HB03 1-270): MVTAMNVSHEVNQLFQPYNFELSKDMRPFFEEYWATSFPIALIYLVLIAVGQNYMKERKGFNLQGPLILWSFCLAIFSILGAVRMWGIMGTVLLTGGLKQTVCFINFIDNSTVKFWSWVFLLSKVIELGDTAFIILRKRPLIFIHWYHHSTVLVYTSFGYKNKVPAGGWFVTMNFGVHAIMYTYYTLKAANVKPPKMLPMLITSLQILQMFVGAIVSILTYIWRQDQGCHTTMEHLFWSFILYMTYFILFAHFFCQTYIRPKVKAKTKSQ

[3] = tested on: herpes simplex virus-1 (HSV-1); assay: HSV-1 replication; type: cell-based; details: nanomolar concentrations
HCV [4] = assay: HCV replication; type: cell-based, hepatitis C virus
HCV [5] = assay: HCV replication in cell cultures, ACC inhibitor combined with HCV protease inhibitor (Example 1); type: cell-based
Procedure: HCV encoded proteolytic activity is required for infection and replication. The present example concerns the combined use of an ACC inhibitors (e.g., TOFA) and an HCV protease inihibitor (e.g., boceprevir) to antagonize viral replication. In each assay, various concentrations of TOFA are combined with various concentrations of boceprevir and cell cultures exposed to HCV are assayed for virus replication. In one series of tested combinations, a physiological concentration of boceprivir is held constant as the dose of TOFA is increased. Control cultures are treated with no drug, boceprivir alone or the various concentrations of TOFA alone. Samples are taken at 24, 48, 72 and 96 hours after initiation of drug treatment. The antiviral effect of boceprivir plus each concentration of TOFA is then compared to the activity of boceprivir alone or the various concentrations of TOFA alone. The relative toxicity of the different combinations is also assayed.

[6] = cited from earlier work

NOCC(=O)O [AOAA, aminooxyacetic acid]
inhibition of HCMV replication (HCMV): inhibited the replication
decrease of HCMV replication (HCMV; 0.5 mM): 100 fold
decrease of influenza A replication (influenza A): at least 1000 fold
inhibition of influenza A replication (influenza A): inhibited the replication
host cell toxicity (MDCK cells): no evidence of host cell toxicity
inhibition of adenovirus replication (adenovirus): inhibited the replication
decrease of adenovirus titer (adenovirus; 0.5 mM): 20 fold
decrease of adenovirus titer (adenovirus; 1 mM): 500 fold

CCC(C)[C@@H]1C(=O)/C(=C(/O)[C@@H]2[C@@H]3[C@H](C)C[C@H](C)C[C@@H]3C=C[C@@H]2[C@]2(C)O[C@H]2C)C(=O)N1C (stereo partly drawn) [PF-1052]
inhibition of HCMV replication (HCMV; 10 μM): profoundly inhibits
inhibition of TG synthesis [1]: inhibits both CE and TG synthesis in a dose dependent manner
inhibition of CE synthesis [2]: inhibits both CE and TG synthesis in a dose dependent manner

O=C(Nc1ccc(C(F)(F)F)cc1)N1C2CCC1CC(S(=O)(=O)c1ccccn1)C2 (stereo not drawn) [endo-1w]
IC50 (hELOVL6): 79 nM
IC50 (hELOVL3): 6.94 µM

CC(C)Oc1ccc(NC(=O)[C@@H]2C[C@@H]3CC[C@H]2N(S(=O)(=O)c2cn(C)cn2)C3)cc1
IC50 (hELOVL6): 220 nM
IC50 (hELOVL3): 1.51 µM

CCC/C=C/C/C=C/C=C/C=N/NN=O [triacsin C]
inhibition of HCMV replication (HCMV; nanomolar concentrations): inhibit the replication
inhibition of influenza A replication (influenza A; nanomolar concentrations): inhibit the replication
inhibition of HSV-1 replication [3]: inhibit the replication
inhibition of HCV replication (HCV [4]; nanomolar concentrations): inhibit the replication

COC(=O)c1c2c(c3ccccc3c1O)OC(C)(C)C=C2 [rubimaillin]
inhibition of CE synthesis [2]: selectively inhibits CE synthesis

CCCCS(=O)(=O)N1C[C@H]2CC[C@@H]1[C@H](C(=O)Nc1ccc(OC)cc1)C2
IC50 (hELOVL6): 1710 nM

CCCCS(=O)(=O)N1CCC[C@@H](C(=O)Nc2ccc(OC(C)C)cc2)C1
IC50 (hELOVL6): 930 nM

N=C(N)NCc1cccc([131I])c1 [MIBG, meta-iodobenzylguanidine]
reduction of HCMV titer (HCMV; 50 μM, infected MRCS fibroblasts): about 70%

CCCCCCCCCCCCCCOc1ccc(C(=O)O)o1 [TOFA, 5-(tetradecyloxy)-2-furoic acid]
inhibition of HCMV replication (HCMV): inhibited the replication
inhibition of HCV replication (HCV [4]): inhibited the replication
magnitude of the therapeutic effect (HCV [5]; given TOFA concentration, boceprivir also present): increased
concentration of TOFA required to produce a 10-fold reduction in HCV replication (HCV [5]; in the presence of a pharmacologically acceptable concentration of boceprivir): markedly reduced
adverse effects ([6]; rat, in vivo, 100 mg/kg/day): no adverse effects are observed
teratogenicity ([6]; rat, in vivo, 150 mg/kg/day): not teratogenic
oral LD50 ([6]; rats, oral): greater than 5,000 mg/kg
